Some results are limits rather than exact numbers.

Series [1] deals with Mus musculus. The series is described as follows: Anticonvulsant activity in Swiss mouse assessed as protection against seizures at 300 mg/kg, ip administered 15 mins before test by maximal electroshock seizure test. Particulars: route intraperitoneal. Type of series: functional.
Series [2] deals with Mus musculus. Briefly: Anticonvulsant activity in Swiss mouse assessed as protection against seizures at 300 mg/kg, ip administered 30 mins before test by maximal electroshock seizure test. The format is functional. Particulars: route intraperitoneal.
Series [3] relates to Mus musculus. Briefly: Anticonvulsant activity in Swiss mouse assessed as protection against seizures at 300 mg/kg, ip administered 60 mins before test by maximal electroshock seizure test. Type of series: functional. The note with it: route intraperitoneal.
Series [4] has as its system Mus musculus. The series is described as follows: Anticonvulsant activity in Swiss mouse assessed as protection against seizures at 300 mg/kg, ip administered 120 mins before test by maximal electroshock seizure test. The note with it: route intraperitoneal. The format is functional.
Series [5] deals with Mus musculus. The series is described as follows: Anticonvulsant activity in Swiss mouse assessed as protection against seizures administered intraperitoneally 15 mins before test by maximal electroshock seizure test. The format is functional. Particulars: ip.
Series [6] concerns Mus musculus. Briefly: Anticonvulsant activity in Swiss mouse assessed as protection against seizures administered intraperitoneally 30 mins before test by maximal electroshock seizure test. The format is functional. The note with it: ip.
Series [7] concerns Mus musculus. Briefly: Anticonvulsant activity in Swiss mouse assessed as protection against seizures administered intraperitoneally 60 mins before test by maximal electroshock seizure test. The format is functional. The note with it: ip.
The subject of series [8] is Mus musculus. The series is described as follows: Anticonvulsant activity in Swiss mouse assessed as protection against seizures administered intraperitoneally 120 mins before test by maximal electroshock seizure test. The note with it: ip. Type of series: functional.
A short description of series [9]: Toxicity in Swiss mouse assessed as effect on motor performance administered intraperitoneally 15 mins before test by Chimney test. The format is organism-based. Particulars: in vivo, ip.
Series [10] is described as follows: Toxicity in Swiss mouse assessed as effect on motor performance administered intraperitoneally 30 mins before test by Chimney test. The format is organism-based. Particulars: in vivo, ip.
Series [11] in a line: Toxicity in Swiss mouse assessed as effect on motor performance administered intraperitoneally 60 mins before test by Chimney test. The format is organism-based. Particulars: in vivo, ip.
Series [12] can be described thus: Toxicity in Swiss mouse assessed as effect on motor performance administered intraperitoneally 120 mins before test by Chimney test. Particulars: in vivo, ip. The format is organism-based.
The nature of series [13]: Protective index, ratio of TD50 in ip Swiss mouse dosed intraperitoneally 15 mins before test by Chimney test to anticonvulsant ED50 in Swiss mouse dosed intraperitoneally 15 mins before test by MES test. Type of series: ADME, organism-based. The note with it: in vivo, read-out: Ratio TD50/ED50.
Series [14] is described as follows: Protective index, ratio of TD50 in ip Swiss mouse dosed intraperitoneally 30 mins before test by Chimney test to anticonvulsant ED50 in Swiss mouse dosed intraperitoneally 30 mins before test by MES test. Type of series: ADME, organism-based. Particulars: in vivo, read-out: Ratio TD50/ED50.
Series [15] can be described thus: Protective index, ratio of TD50 in ip Swiss mouse dosed intraperitoneally 60 mins before test by Chimney test to anticonvulsant ED50 in Swiss mouse dosed intraperitoneally 60 mins before test by MES test. The format is ADME, organism-based. The note with it: in vivo, read-out: Ratio TD50/ED50.
A short description of series [16]: Protective index, ratio of TD50 in ip Swiss mouse dosed intraperitoneally 120 mins before test by Chimney test to anticonvulsant ED50 in Swiss mouse dosed intraperitoneally 120 mins before test by MES test. The format is ADME, organism-based. Particulars: in vivo, read-out: Ratio TD50/ED50.
Series [17] has as its target GABA-A receptor; anion channel (Homo sapiens) (UniProt P14867+P47870+P18507+P28472+P48169+Q99928+Q9UN88+P34903+O00591+O14764+Q8N1C3+P18505+P78334+P47869+P31644+Q16445). Briefly: Displacement of [3H]muscimol form GABAA receptor in rat cerebral cortex assessed as specific radio-ligand binding level at 1 uM incubated for 10 mins by liquid scintillation counting method. Type of series: tissue-based. The note with it: target entry is the homologue from another species.

The species entered for the next series is Rattus norvegicus. The series is described as follows: Displacement of [3H]flunitrazepam form benzodiazepine receptor in rat cerebral cortex assessed as specific radio-ligand binding level at 1 uM incubated for 20 mins by liquid scintillation counting method. Type of series: tissue-based.

In the case of `CCCCCCCCn1c(Cc2cccc(Cl)c2)n[nH]c1=S`, the Activity in the series with Mus musculus [1] is 100%; with Mus musculus [2], 100%; in the series on Mus musculus [3] it was 100%; in the series with Mus musculus [4], 82.5%; in series [17], 8%; in the series filed under Rattus norvegicus, 0%. For the same molecule, the ED50 in the series with Mus musculus [5] stood at 162 mg/kg; in the series with Mus musculus [6], 166 mg/kg; with Mus musculus [7], 153 mg/kg; with Mus musculus [8] it was 224 mg/kg. Also, the TD50 at 0.25 h in [9] came out at 391 mg/kg. Also, the TD50 at 0.5 h in series [10] turned out to be 486 mg/kg. In addition, the TD50 at 1 h in [11] is 436 mg/kg. In [12], the TD50 at 2 h was determined as 441 mg/kg. Further, the selectivity ratio at 0.25 h in series [13] turned out to be 2.4. In series [14], the selectivity ratio at 0.5 h came out at 2.9. For the same molecule, the selectivity ratio at 1 h in series [15] was 2.8. Besides, the selectivity ratio at 2 h in [16] came to 2.

For the molecule `NCCCC(=O)O`, the Activity in series [17] was determined as 82%.

Take `CCn1c(Cc2cccc(Cl)c2)n[nH]c1=S`: the Activity was 100% in the series on Mus musculus [1]; 100% with Mus musculus [2]; 100% in the series on Mus musculus [3]; 100% in the series with Mus musculus [4]; 0% in series [17]; 15% in the series listed under Rattus norvegicus. For the same molecule, the ED50 worked out at 51.1 mg/kg with Mus musculus [5], 54.4 mg/kg in the series on Mus musculus [6], 69.9 mg/kg in the series with Mus musculus [7] and 88.3 mg/kg in the series on Mus musculus [8]. Moreover, the TD50 at 0.25 h in series [9] amounted to 297 mg/kg. In addition, the TD50 at 0.5 h in series [10] is 285 mg/kg. Also, the TD50 at 1 h in [11] was 290 mg/kg. Also, in series [12], the TD50 at 2 h was 345 mg/kg. Moreover, in series [13], the selectivity ratio at 0.25 h was 5.8. In addition, the selectivity ratio at 0.5 h in series [14] is 5.2. Moreover, in [15], the selectivity ratio at 1 h stood at 4.1. Besides, the selectivity ratio at 2 h in series [16] was determined as 3.9.

With `CCCCCn1c(Cc2cccc(Cl)c2)n[nH]c1=S`, the Activity with Mus musculus [1] is 100%; with Mus musculus [2], 100%; in the series with Mus musculus [3] it was 100%; with Mus musculus [4], 100%; in series [17] it was 10%; in the series filed under Rattus norvegicus it was 14%. Also, the ED50 amounted to 48.5 mg/kg in the series with Mus musculus [5], 62.5 mg/kg in the series on Mus musculus [6], 68.4 mg/kg with Mus musculus [7] and 84.2 mg/kg with Mus musculus [8]. For the same molecule, the TD50 at 0.25 h in series [9] is 371 mg/kg. Also, the TD50 at 0.5 h in series [10] came out at 322 mg/kg. The TD50 at 1 h in series [11] is 329 mg/kg. Besides, the TD50 at 2 h in series [12] amounted to 348 mg/kg. In [13], the selectivity ratio at 0.25 h came out at 7.6. Also, the selectivity ratio at 0.5 h in [14] stood at 5.2. Moreover, the selectivity ratio at 1 h in [15] is 4.8. Besides, in series [16], the selectivity ratio at 2 h is 4.1.

Regarding `CCCCCCn1c(Cc2cccc(Cl)c2)n[nH]c1=S`, the Activity in the series on Mus musculus [1] came out at 100%; in the series with Mus musculus [2], 100%; with Mus musculus [3], 100%; in the series on Mus musculus [4], 100%; in [17] it was 3%; in the series filed under Rattus norvegicus it was 1%. Besides, the ED50 with Mus musculus [5] is 72.1 mg/kg; in the series on Mus musculus [6], 74.5 mg/kg; with Mus musculus [7], 83.6 mg/kg; in the series with Mus musculus [8], 97.9 mg/kg. The TD50 at 0.25 h in series [9] was greater than 1000 mg/kg. The TD50 at 0.5 h in series [10] is greater than 1000 mg/kg. In series [11], the TD50 at 1 h amounted to 541 mg/kg. In addition, the TD50 at 2 h in series [12] was 548 mg/kg. Also, in [13], the selectivity ratio at 0.25 h was greater than 13.9. Also, in series [14], the selectivity ratio at 0.5 h is greater than 13.4. Also, the selectivity ratio at 1 h in series [15] is 6.5. The selectivity ratio at 2 h in [16] was found to be 5.6.

Take `CN1C(=O)CN=C(c2ccccc2)c2cc(Cl)ccc21`: in the series listed under Rattus norvegicus, the Activity stood at 83%.

With `Cc1ccc(-c2nc3ccc(C)cn3c2CC(=O)N(C)C)cc1`, the Activity in the series listed under Rattus norvegicus came out at 73%.

Take `CCCCCn1c(-c2cccc(Cl)c2Cl)n[nH]c1=S`: the Activity was 37.5% in the series on Mus musculus [1]; 62.5% with Mus musculus [2]; 62.5% in the series on Mus musculus [3]; 37.5% in the series on Mus musculus [4]; 0% in [17]; 18% in the series filed under Rattus norvegicus. Also, the ED50 stood at 329 mg/kg in the series on Mus musculus [5], 276 mg/kg in the series on Mus musculus [6], 285 mg/kg in the series on Mus musculus [7] and 348 mg/kg with Mus musculus [8]. The TD50 at 0.25 h in series [9] came out at 386 mg/kg. Moreover, the TD50 at 0.5 h in series [10] is 354 mg/kg. In addition, the TD50 at 1 h in series [11] amounted to 348 mg/kg. Also, in [12], the TD50 at 2 h worked out at 326 mg/kg. For the same molecule, in series [13], the selectivity ratio at 0.25 h was determined as 1.2. Further, in series [14], the selectivity ratio at 0.5 h was 1.3. Moreover, in series [15], the selectivity ratio at 1 h was 1.2.

For the molecule `CCCCCCCn1c(Cc2cccc(Cl)c2)n[nH]c1=S`, the Activity was 100% in the series on Mus musculus [1]; 100% in the series with Mus musculus [2]; 100% with Mus musculus [3]; 100% with Mus musculus [4]; 4% in series [17]; 1% in the series filed under Rattus norvegicus. Also, the ED50 in the series on Mus musculus [5] is 49.7 mg/kg; in the series on Mus musculus [6] it was 76.3 mg/kg; with Mus musculus [7], 70.6 mg/kg; in the series on Mus musculus [8], 89.6 mg/kg. Besides, in [9], the TD50 at 0.25 h is 507 mg/kg. In addition, the TD50 at 0.5 h in [10] turned out to be 640 mg/kg. Further, the TD50 at 1 h in [11] turned out to be 519 mg/kg. Moreover, the TD50 at 2 h in [12] was 442 mg/kg. The selectivity ratio at 0.25 h in series [13] was determined as 10.2. Moreover, in series [14], the selectivity ratio at 0.5 h stood at 8.4. The selectivity ratio at 1 h in series [15] was 7.3. In addition, the selectivity ratio at 2 h in series [16] came out at 4.9.

Turning to `CCCCCCn1c(-c2cccc(Cl)c2Cl)n[nH]c1=S`, the Activity with Mus musculus [1] was determined as 12.5%; with Mus musculus [2], 12.5%; with Mus musculus [3], 25%; with Mus musculus [4], 12.5%; in series [17] it was 2%; in the series listed under Rattus norvegicus, 10%.

For the molecule `CCCCCCCCCCn1c(Cc2cccc(Cl)c2)n[nH]c1=S`, the Activity was found to be 0% in the series with Mus musculus [1]; 0% in the series on Mus musculus [2]; 0% with Mus musculus [3]; 0% with Mus musculus [4]; 15% in series [17]; 12% in the series filed under Rattus norvegicus.

As for `CCCCCCCCCCCCn1c(Cc2cccc(Cl)c2)n[nH]c1=S`, the Activity in the series with Mus musculus [1] turned out to be 0%; with Mus musculus [2], 0%; in the series on Mus musculus [3], 0%; in the series with Mus musculus [4] it was 0%; in series [17], 0%; in the series filed under Rattus norvegicus, 12%.

`CCCCCCCn1c(-c2cccc(Cl)c2Cl)n[nH]c1=S`: the Activity in the series on Mus musculus [1] is 25%; in the series on Mus musculus [2], 25%; in the series on Mus musculus [3], 25%; with Mus musculus [4] it was 12.5%; in [17] it was 3%; in the series listed under Rattus norvegicus, 8%.

On to `CCCCn1c(-c2cccc(Cl)c2Cl)n[nH]c1=S`, for which the Activity in the series with Mus musculus [1] amounted to 12.5%; with Mus musculus [2], 12.5%; in the series on Mus musculus [3], 25%; in the series on Mus musculus [4], 0%; in [17] it was 16%; in the series listed under Rattus norvegicus, 14%.

Regarding `CCn1c(-c2cccc(Cl)c2Cl)n[nH]c1=S`, the Activity is 0% in the series on Mus musculus [1]; 0% in the series on Mus musculus [2]; 0% in the series on Mus musculus [3]; 0% with Mus musculus [4]; 19% in series [17]; 5% in the series filed under Rattus norvegicus.

(Values after ChEMBL document CHEMBL3351688, “Studies on the anticonvulsant activity of 4-alkyl-1,2,4-triazole-3-thiones and their effect on GABAergic system” (Eur J Med Chem, 2014).)
